Test results reported in PMC2363969, “gp100/pmel17 and tyrosinase encode multiple epitopes recognized by Th1-type CD4+T cells” (British Journal of Cancer, 2001).
pIC50: −log10 of the molar value. Like-named read-outs stand apart in the source and are kept apart here. Where a SMILES comes first, the peptide text is derived from it. Where no end group is shown, it is not given here.

Assays:
[1] = molecular target: HLA-DRB1*0401 (Homo sapiens, UniProt P01903+P01911, A100K/A169T/F76Y/I96L/K127E/L162R/M171V/N62H/P40V/Q125Y/R42H/S133A/S149N/S66Y/V115G/V209L/W38E); test: solid-state competitive-binding assay, purified HLA-DR4
[2] = system: CD4+ T cells; test: IFN-γ ELISPOT, freshly-isolated peripheral blood CD4+ T cells vs peptide-pulsed T2.DR4; format: cell-based, human; conditions: positive if above normal donor mean + 3 S.D.; for T cell responses evaluated in MEL (of 5): number of responding patients: HLA-DR4+ melanoma patients with active disease, n = 5, 20 h IFN-γ ELISPOT; for T cell responses evaluated in MEL-NED (of 11): number of responding patients: HLA-DR4+ melanoma patients with no evidence of disease, n = 11, 20 h IFN-γ ELISPOT
[3] = system: CD4+ T cells; test: IFN-γ ELISPOT, normal donor CD4+ T cells after in vitro stimulation with peptide-pulsed autologous DC; format: cell-based, human; conditions: for T cell responses evaluated in ND-IVS (of 10): number of responding normal donors: normal HLA-DR4+ donors, n = 10, after 2 rounds of in vitro stimulation with autologous DC pulsed with peptide, IFN-γ ELISPOT
[4] = molecular target: HLA-DRB1*0404 (Homo sapiens, UniProt P01903+P01911, A100R/A169T/F76Y/I96L/K127E/L162R/M171V/N62H/P40V/Q125Y/R42H/S133A/S149N/S66Y/V209L/W38E); test: solid-state competitive-binding assay, purified HLA-DR4
[5] = read-out: Binding affinity (IC50) DRB1*0401
[6] = read-out: Binding affinity (IC50) DRB1*0404

Molecule	pIC50 [1, 5]	T cell responses evaluated in MEL (of 5): number of responding patients [2]	T cell responses evaluated in MEL-NED (of 11): number of responding patients [2]	T cell responses evaluated in ND-IVS (of 10): number of responding normal donors [3]	other results
CC(C)[C@H](NC(=O)[C@H](CO)NC(=O)[C@@H]1CCCN1C(=O)[C@@H](N)Cc1c[nH]c2ccccc12)C(=O)N[C@@H](Cc1ccccc1)C(=O)N[C@@H](Cc1ccc(O)cc1)C(=O)N[C@@H](CC(N)=O)C(=O)N[C@@H](CCCNC(=N)N)C(=O)N[C@H](C(=O)N[C@@H](CS)C(=O)N[C@@H](CCC(N)=O)C(=O)N[C@@H](CS)C(=O)N[C@@H](CO)C(=O)NCC(=O)N[C@@H](CC(N)=O)C(=O)N[C@@H](Cc1ccccc1)C(=O)O)[C@@H](C)O [tyrosinase80-95] (H-WPSVFYNRTCQCSGNF-OH; N-terminus and C-terminus assumed)	–	0 patients (of 5)	0 patients (of 11)	0 donors (of 10)	–
ALHIYMDGTMSQVQGSA [tyrosinase365-381D]	–	–	–	–	pIC50 [1]: 7.77; pIC50 [4]: 7.51
KRCLLHLAVIGALLAVGATKV [gp100/pmel176-26]	< 5.00	–	–	–	–
PGPVTAQVVLQAAIPLTSCGSS [gp100/pmel17283-304]	–	–	–	–	pIC50 [4, 6]: 7.29
VYVWKTWGQYWQVLGGPVS [gp100/pmel17150-168]	–	0 patients (of 5)	0 patients (of 11)	0 donors (of 10)	pIC50 [1]: < 5.00; pIC50 [4]: < 5.00
WMHYYVSMDALLGGSEI [tyrosinase178-194, synthetic peptide derived from tyrosinase]	–	1 patients (of 5)	1 patients (of 11)	3 donors (of 10)	immunogen grade on an arbitrary scale ([3]; in both melanoma patients and in vitro stimulated normal donors, weak / moderate / strong): moderate

More lines, main results first:

pIC50 [1, 5]	Molecule	T cell responses evaluated in MEL (of 5): number of responding patients [2]	T cell responses evaluated in MEL-NED (of 11): number of responding patients [2]	T cell responses evaluated in ND-IVS (of 10): number of responding normal donors [3]	other results
< 5.00	CC[C@H](C)[C@H](NC(=O)[C@H](CCC(N)=O)NC(=O)[C@H](Cc1c[nH]cn1)NC(=O)[C@H](CC(C)C)NC(=O)[C@@H](NC(=O)[C@H](CC(C)C)NC(=O)[C@H](CCC(N)=O)NC(=O)[C@H](CS)NC(=O)[C@H](C)NC(=O)[C@@H]1CCCN1C(=O)[C@H](CO)NC(=O)[C@@H]1CCCN1C(=O)[C@H](CC(C)C)NC(=O)[C@@H](NC(=O)[C@@H]1CCCN1C(=O)[C@H](CCC(N)=O)NC(=O)[C@H](CS)NC(=O)[C@@H](N)CC(C)C)C(C)C)C(C)C)C(=O)N[C@@H](CC(C)C)C(=O)N[C@@H](CCCCN)C(=O)NCC(=O)NCC(=O)O [gp100/pmel17540-561] (H-LCQPVLPSPACQLVLHQILKGG-OH)	–	–	–	–
< 5.00	IVGILLVLMAVVLASLIYRRR [gp100599-619 /pmel17606-626]	0 patients (of 5)	0 patients (of 11)	0 donors (of 10)	pIC50 [4, 6]: < 5.00
< 5.00	VSGLSIGTGRAMLGTHTMEVTVY [gp100/pmel17167-189]	–	–	–	–
